Data published in patent publication US11524009B2, “Combination comprising at least one spliceosome modulator and at least one inhibitor chosen from BCL2 inhibitors, BCL2/BCLxL inhibitors, and BCLxL inhibitors and methods of use” (Eisai R&D Management Co., Ltd., priority 2017, dated 2022).

Experiments:
Format in all cases: cell-based
[1] = test system: MCL1 gene splicing in NCIH1568 cells; test: Quantitative RT-PCR detection of MCL1 mRNAs (splicing modulation); settings: six-hour treatment, qRT-PCR
Experimental: RNA lysates were isolated from cells treated with compounds in 96 well plates and reverse transcribed using TaqMan Gene Expression Cells-to-CT Kit (Thermo Fisher Scientific) according to manufacturer's instruction. Quantitative PCR was performed using TaqMan Gene Expression Master Mix (Thermo Fisher Scientific) with MCL1 transcript probes (Integrated DNA technologies FAM-ZEN/IBFQ) duplexed with 18S rRNA VIC-PL (Thermo Fisher Scientific assay ID Hs99999901_s1) and quantified using the ΔΔCt method.

[2] = test system: MCL1 protein in NCIH1568 cells; test: Western Blot Analysis of MCL1L, truncated MCL1 and cleaved PARP; settings: 6 hours
Experimental: Cell lines were lysed in RIPA buffer (Boston BioProducts) plus protease-inhibitor cocktail (Mini-complete, EDTA-free, Roche) and phosphatase inhibitor PhosSTOP (Roche). Lysates were diluted in RIPA buffer with 4×LDS Sample Buffer (Nupage, Thermo Fisher Scientific) and 10× Reducing Reagent (Nupage, Thermo Fisher Scientific) and boiled for 5 minutes. Twenty five micrograms of protein were loaded per well in 4-12% Bis-Tris SDS Page gels (Novex, Thermo Fisher Scientific). Gels were transferred to nitrocellulose membranes using iBlot system (Thermo Fisher Scientific). Membranes were blocked in blocking buffer (1× Tris-Buffered Saline+0.1% Tween-20 (Boston Bioproducts)+5% Non-Fat Dry Milk (Bio-Rad)) for 1 hour and then cut. Each section was probed separately with antibodies to each of the following proteins in blocking buffer: MCL1 (Cell Signaling Technologies 5453) (D35A5) rabbit monoclonal diluted 1:500, BCL-xL (Cell Signaling Technologies 2764) (54H6) rabbit monoclonal diluted 1:500, Cleaved Parp (Cell Signaling Technologies 5625) (D64P10) rabbit monoclonal diluted 1:500, and GAPDH (Sigma G8795) mouse monoclonal at 100 ng/mL. Blots were incubated with primary antibodies dilutions shaking at 4° C. overnight. Western blots were then blotted either with Odyssey Licor or HRP secondary antibodies. Blots were then washed four times using wash buffer (1× Tris-Buffered Saline+0.1% Tween-20). Blots imaged using Licor were probed shaking at room temperature for 1 hour with Licor IR-labeled secondary antibodies, IRDye® 800CW Goat anti-Rabbit IgG (Odyssey 925-32211) and IRDye® 680LT Goat anti-Mouse IgG (Odyssey 925-68020) diluted 1:10,000 in blocking buffer. Blots were then washed three times with wash buffer. IR-dye detection was performed using the Licor imaging system (Odyssey) according to manufacturer's instruction. Blots imaged using HRP were probed shaking at room temperature for 1 hour with Anti-mouse IgG, HRP-linked Antibody (Cell Signaling Technologies 7076) and Anti-rabbit IgG, HRP-linked Antibody (Cell Signaling Technologies 7074) diluted 1:5000 in blocking buffer. […]

NCIH1568 cells = test: Growth inhibition, MCL1 rescue by MCL1L cDNA overexpression; settings: NCIH1568 (MCL1-dependent), Dox-induced MCL1L cDNA vs empty vector
Description: (§1) BCL-xL shRNA 1 ([…]) (Wei G, et al., 2012, Cancer Cell 21(4): 547-562) was cloned into Agel and EcoRl of the Tet inducible lentiviral pLKO-iKD-H1 puro vector (Wiederschain D, et al., 2009, Cell Cycle 8(3): 498-504). MCL1 shRNA 48 ([…]) (Wei G, et al., 2012, Cancer Cell 21(4): 547-56) was cloned into Agel and EcoRl of the Tet inducible lentiviral pLKO-iKD-U6 puro vector. MCL1-L pENTR-D-TOPO was Gateway cloned (LR clonase, Thermo Fisher Scientific) into pINDUCER20 (Meerbrey K L, et al., 2011, Proc Natl Acad Sci USA. 108(9):3665-3670). Lentiviruses were prepared in LentiX-293T cells. […]
(§2) For compound dose response experiments, cells were plated in 96 or 384 well plates at 1,000 cells in 50 μl per well. […] At t=0, untreated cells were lysed with CellTiter-Glo and measured on an Envision plate reader. At t=72 (72 hours after compound addition), cells treated with compound were lysed with CellTiter-Glo and analyzed on Envision. The luminescence value from each treatment sample was normalized to the average value of the respective DMSO control. […]

A549 cells = test: Growth inhibition with or without Dox-induced knockdown of BCLxL
Description: as §1, §2

`CC[C@H](O)[C@@H](C)[C@H]1O[C@@H]1C[C@@](C)(O)/C=C/C=C(\C)[C@H]1OC(=O)C[C@H](O)CC[C@@](C)(O)[C@@H](OC(=O)N2CCN(C3CCCCCC3)CC2)/C=C/[C@@H]1C` [E7107, (8E,12E,14E)-7-((4-Cycloheptylpiperazin-1-yl)carbonyl)oxy-3,6,16,21-tetrahydroxy-6,10,12,16,20-pentamethyl-18,19-epoxytricosa-8,12,14-trien-11-olide] was tested, and the “MCL1L mRNA” value [1] was “robust reduction”, the “MCL1S mRNA” value [1] was “transient expression” and the “MCL1 pre-mRNA with intron-retention” value [1] was “continuous induction”. For the same compound, the “cleaved PARP protein (indicator of apoptosis)” value [2] was “induction”, the “full length MCL1 protein” value [2] was “dose-dependent downregulation” and the “truncated short-form MCL1 protein product” value [2] was “increased in a dose-dependent manner”. The “cell death with cDNA overexpression of MCL1L” value (NCIH1568 cells) was “rescued the cell death”, the growth inhibition (A549 cells; A549 (MCL1-independent), without BCLxL knockdown) was “cytostatic inhibition” and the growth inhibition (A549 cells; A549, inducible knockdown of BCLxL (Dox)) was “clear cell death”.
